Experimental data published in patent publication US12551449B2, “Tunable degradation in hydrogel microparticles” (LIKARDA, INC., priority 2019, dated 2026).

Assays:
[1] = thiol group(s); cited from earlier work
canine islets [2] = experiment: Cytotoxicity of UV light and photoinitiator on canine islets; assay type: cell-based; details: 10 minutes UV ~40 mW/cm^2
Method: (§1) Dead cells were identified using propidium iodine staining and fluorescence microscopy. Fluorescence micrographs were captured with a Cytation 5 Imaging Multi-Mode Reader (Biotek Instruments, Inc, 531/647 nm ex/em). Cell death was quantified by calculating the ratio of red (dead) pixels to total islet pixels using Adobe Photoshop. Twenty-five individual islets were analyzed per group and were distinguished from non-islet tissues via dithizone staining. Results are reported as the average viable cell fraction and normalized to islet viability of the matched, untreated controls (i.e., islet from the same batch in culture medium).
For PEGDA and methacrylated hyaluronic acid (MeHA) microparticles, photocrosslinking was utilized. Thus, studies examining the toxicity of ultraviolet light (UV) and the photoinitiator were first conducted. Canine islets were suspended in Dulbecco's phosphate buffered saline (DPBS) containing 0, 0.025 or 0.05% (w/v) of the photoinitiator, IRGACURE® 2959. Approximately 50 IEQ were loaded into wells of a 24-well plate and irradiated with long-wave ultraviolet (UV) light for 3, 5 or 10 minutes. […] Cell death was evaluated via propidium iodide staining and quantified as described in the previous section.

canine islets [3] = experiment: Cytotoxicity of calcium (CSS component) on canine islets, propidium iodide staining; assay type: cell-based
Method: The cytotoxicity of calcium, a component in the CSS process, was tested by exposing canine islets to solutions containing either 100 mM or 200 mM calcium chloride, 10 mM HEPES buffer, and 20% PEGDA, MW 3,400 Da (Laysan Bio, Inc.) for 5, 10 or 15 minutes. A group was also exposed to 100 mM calcium chloride without PEGDA to evaluate the effect of calcium alone. Islets were suspended at approximately 5,000 IEQ/mL in the test solutions to emulate the high cell loading density associated with the encapsulation process. After calcium exposure, islets were washed twice with supplemented CMRL 1066 islet media and then incubated at 37° C. and 5% CO2 for 3 hours prior to assessment.
as §1

For `SCCOCCOCCOCCOCCOCCS` [Hexaethhylene glycol dithiol], the pKa [1] is listed as 10.5-10.7.

In the case of `SCCOCCS` [2-mercaptoethyl ether], the pKa [1] is listed as 10.5-10.7.

Compound `CC(C)(O)C(=O)c1ccc(OCCO)cc1` [IRGACURE® 2959, 2-Hydroxy-4′-(2-hydroxyethoxy)-2-methylpropiophenone] has a viable cell fraction (canine islets [2]; 0.025% (w/v)) of 94.5% and a viable cell fraction (canine islets [2]; 0.05% (w/v)) of 87.2%.

For `O=C(CS)OCCOC(=O)CS` [Glycol dimercaptoacetate], the pKa [1] is listed as 7.9-8.1.

For `[Ca+2].[Cl-].[Cl-]` [calcium, calcium chloride], the “exposure time tolerated by islets” value (canine islets [3]; 100 mM calcium in concentrated, viscous PEGDA solution) was “at least 10 minutes”, the “viability compared to controls” value (canine islets [3]; 100 mM calcium without PEGDA, 15 minutes) was 97.6% and the cytotoxicity to islets (canine islets [3]; 200 mM calcium) was “rapidly cytotoxic”. For the same compound, the “viability compared to matched, untreated controls” value (canine islets [3]; 100 or 200 mM calcium with PEGDA or 100 mM calcium alone, 5 minutes exposure) was “above 97.5%”.

For `O=C(CCS)OCCOC(=O)CCS` [Glycol di(3mercaptopropionate)], the pKa [1] is listed as 9.4-9.5.

For `SCCSCCS` [2,2'-thiodiethanethiol], the pKa [1] is listed as 9.4-9.5.

For `N[C@H](CS)CCS` [(S)-2 Aminobutane 1,4 dithiol], the pKa [1] is listed as 8.5.

For Glyceryl dithioglycolate, the pKa [1] is given as 7.9-8.1.
